PubChem BioAssay (NCI)
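Where inhibition never reached the appropriate level, the endpoint shown equals the highest concentration tested. Otherwise, values were interpolated linearly from a five-concentration, 48-hour dose response in 96-well plates. TGI is the concentration that stops growth completely.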

Assays:
Assay in all cases: NCI tumour cell line growth inhibition, 48 h
OVCAR-3 ovarian = system: OVCAR-3 ovarian
SK-OV-3 ovarian = system: SK-OV-3 ovarian
SK-MEL-5 melanoma = system: SK-MEL-5 melanoma
NCI-H522 lung = system: NCI-H522 lung
HOP-18 NSCLC = system: HOP-18 NSCLC
HCT-116 colon = system: HCT-116 colon
KM12 colon = system: KM12 colon
LXFL 529 NSCLC = system: LXFL 529 NSCLC
UACC-257 melanoma = system: UACC-257 melanoma
SF-268 CNS = system: SF-268 CNS
NCI-H460 lung = system: NCI-H460 lung
HL-60(TB) leukemia = system: HL-60(TB) leukemia
NCI-H226 lung = system: NCI-H226 lung
SW-620 colon = system: SW-620 colon
MALME-3M melanoma = system: MALME-3M melanoma
HCC-2998 colon = system: HCC-2998 colon
HOP-92 NSCLC = system: HOP-92 NSCLC
SN12C renal = system: SN12C renal
HT29 colon = system: HT29 colon
ACHN renal = system: ACHN renal
786-0 renal = system: 786-0 renal
MOLT-4 leukemia = system: MOLT-4 leukemia
SNB-78 CNS = system: SNB-78 CNS
SF-539 CNS = system: SF-539 CNS
SF-295 CNS = system: SF-295 CNS
SK-MEL-28 melanoma = system: SK-MEL-28 melanoma
U251 CNS = system: U251 CNS
A549 NSCLC = system: A549 NSCLC
EKVX NSCLC = system: EKVX NSCLC
NCI-H23 lung = system: NCI-H23 lung
XF 498 CNS = system: XF 498 CNS
DLD-1 colon = system: DLD-1 colon
SK-MEL-2 melanoma = system: SK-MEL-2 melanoma
UACC-62 melanoma = system: UACC-62 melanoma
COLO 205 colon = system: COLO 205 colon
A498 renal = system: A498 renal
SNB-75 CNS = system: SNB-75 CNS
DMS 114 small cell lung = system: DMS 114 small cell lung
DMS 273 small cell lung = system: DMS 273 small cell lung
K-562 leukemia = system: K-562 leukemia
OVCAR-4 ovarian = system: OVCAR-4 ovarian
SNB-19 CNS = system: SNB-19 CNS
OVCAR-5 ovarian = system: OVCAR-5 ovarian
M19-MEL melanoma = system: M19-MEL melanoma
SR leukemia = system: SR leukemia
HOP-62 NSCLC = system: HOP-62 NSCLC
RXF 393 renal = system: RXF 393 renal
CCRF-CEM leukemia = system: CCRF-CEM leukemia
LOX IMVI melanoma = system: LOX IMVI melanoma
OVCAR-8 ovarian = system: OVCAR-8 ovarian
KM20L2 colon = system: KM20L2 colon
TK-10 renal = system: TK-10 renal
HCT-15 colon = system: HCT-15 colon
CAKI-1 renal = system: CAKI-1 renal
IGROV1 ovarian = system: IGROV1 ovarian
RPMI-8226 leukemia = system: RPMI-8226 leukemia
UO-31 renal = system: UO-31 renal
RXF-631 renal = system: RXF-631 renal
M14 melanoma = system: M14 melanoma

For `COc1ccc(NCc2cc(OC)cc(OC)c2)cc1`, the TGI (OVCAR-3 ovarian) was > 59.3 µM, the TGI (SK-OV-3 ovarian) was > 95.5 µM and the TGI (SK-MEL-5 melanoma) was > 100 µM. For the same molecule, the TGI (NCI-H522 lung) was 56.7 µM, the TGI (HOP-18 NSCLC) was > 100 µM and the TGI (HCT-116 colon) was 57.3 µM. For the same molecule, the TGI (KM12 colon) was > 64.9 µM, the TGI (LXFL 529 NSCLC) was > 100 µM and the TGI (UACC-257 melanoma) was > 100 µM. The TGI (SF-268 CNS) was > 91 µM, the TGI (NCI-H460 lung) was > 84.6 µM and the TGI (HL-60(TB) leukemia) was 32.9 µM. For the same molecule, the TGI (NCI-H226 lung) was > 100 µM, the TGI (SW-620 colon) was > 100 µM and the TGI (MALME-3M melanoma) was > 100 µM. For the same molecule, the TGI (HCC-2998 colon) was 57.9 µM, the TGI (HOP-92 NSCLC) was > 100 µM and the TGI (SN12C renal) was > 100 µM. For the same molecule, the TGI (HT29 colon) was > 100 µM, the TGI (ACHN renal) was > 100 µM and the TGI (786-0 renal) was > 100 µM. The TGI (MOLT-4 leukemia) was > 100 µM, the TGI (SNB-78 CNS) was 61.8 µM and the TGI (SF-539 CNS) was 54.2 µM. The TGI (SF-295 CNS) was > 100 µM, the TGI (SK-MEL-28 melanoma) was > 100 µM and the TGI (U251 CNS) was > 85 µM. The TGI (A549 NSCLC) was > 100 µM, the TGI (EKVX NSCLC) was > 100 µM and the TGI (NCI-H23 lung) was > 95.5 µM. The TGI (XF 498 CNS) was > 76.8 µM, the TGI (DLD-1 colon) was > 100 µM and the TGI (SK-MEL-2 melanoma) was > 82.7 µM. For the same molecule, the TGI (UACC-62 melanoma) was > 100 µM, the TGI (COLO 205 colon) was 27.4 µM and the TGI (A498 renal) was > 100 µM. The TGI (SNB-75 CNS) was > 100 µM, the TGI (DMS 114 small cell lung) was > 100 µM and the TGI (DMS 273 small cell lung) was > 70.4 µM. For the same molecule, the TGI (K-562 leukemia) was > 84.6 µM, the TGI (OVCAR-4 ovarian) was 82.1 µM and the TGI (SNB-19 CNS) was > 100 µM. For the same molecule, the TGI (OVCAR-5 ovarian) was 77.7 µM, the TGI (M19-MEL melanoma) was > 100 µM and the TGI (SR leukemia) was > 100 µM. For the same molecule, the TGI (HOP-62 NSCLC) was > 100 µM, the TGI (RXF 393 renal) was 69.8 µM and the TGI (CCRF-CEM leukemia) was > 92.6 µM. The TGI (LOX IMVI melanoma) was > 100 µM, the TGI (OVCAR-8 ovarian) was > 100 µM and the TGI (KM20L2 colon) was 38.1 µM. For the same molecule, the TGI (TK-10 renal) was > 100 µM, the TGI (HCT-15 colon) was > 100 µM and the TGI (CAKI-1 renal) was > 100 µM. For the same molecule, the TGI (IGROV1 ovarian) was > 100 µM, the TGI (RPMI-8226 leukemia) was 61.6 µM and the TGI (UO-31 renal) was > 91.8 µM. The TGI (RXF-631 renal) was > 100 µM and the TGI (M14 melanoma) was > 100 µM.
